“And” between values parts separate entries of the source, which are not always exact repeats. Equal values may be shown once.
System: sulfotransferase in hair follicles
Assay: In-vitro evaluation of sulfotransferase up-regulation in plucked hair follicles
Assay type: cell-based, human
Conditions: for OD 405 (1)-(3), individual replicates / OD 405 Average: 24 h incubation, patient AB-001; for induction of sulfotransferase activity in plucked hair follicles (conclusion): 24 h
Experimental: The following experiment was conducted to assess the up-regulation of sulfotransferase in hair follicles by candidate compounds know to interact with human nuclear receptors (e.g., PXR and CAR).
Method: For each compound tested, 24 hairs were plucked from a human subject. […] 1 uL of DMSO with no compound was added to control samples. Hairs were allowed to incubate with the candidate compounds for 24 h at room temperature. All samples were run in triplicate, i.e., the data describe in the result section is an average of three samples tested.
After 24 h of incubation hairs were removed from the sample media and washed briefly with clean water. Hairs were trimmed to a length of ˜1 cm and immersed, bulb first, in 100 μL of an assay solution containing 50 mM phosphate buffer (pH8), 5 mM potassium p-nitrophenyl sulfate, 20 μM adenosine 3′,5′-diphosphate, 100 μM minoxidil and 5 mM MgCl2. Hairs were allowed to react with the solution for 24 hours at room temperature. After incubation, hairs were removed and the optical absorbance of the solution at 405 nm was determined with a spectrophotometer using a single scan and 1 cm path length.

[1] = 10 uM, DMSO control average 0.120 (Vitamin K2 run), 0.241 (Genistein run)
[2] = 25 uM, DMSO control average 0.241
[3] = 50 uM, DMSO control average 0.241
[4] = 0.2 uM, DMSO control average 0.195
[5] = 1 uM, DMSO control average 0.195
[6] = 5 uM, DMSO control average 0.120 (Vitamin K2 run), 0.195 (Hyperforin run)
[7] = 20 uM, DMSO control average 0.120

Structure (SMILES)	OD 405 (1)-(3), individual replicates [1]	OD 405 Average [1]	OD 405 (1)-(3), individual replicates [2]	OD 405 Average [2]	OD 405 (1)-(3), individual replicates [3]	OD 405 Average [3]	induction of sulfotransferase activity in plucked hair follicles (conclusion)	OD 405 (1)-(3), individual replicates [4]	OD 405 Average [4]	OD 405 (1)-(3), individual replicates [5]	OD 405 Average [5]	OD 405 (1)-(3), individual replicates [6]	OD 405 Average [6]	OD 405 (1)-(3), individual replicates [7]	OD 405 Average [7]
O=c1c(-c2ccc(O)cc2)coc2cc(O)cc(O)c12 [Genistein, genistein]	0.186 and 0.235 and 0.134	0.185	0.179 and 0.144 and 0.085	0.136	0.122 and 0.080 and 0.190	0.131	induced sulfotransferase activity	–	–	–	–	–	–	–	–
CC(C)=CCC[C@]1(C)[C@@H](CC=C(C)C)C[C@@]2(CC=C(C)C)C(=O)[C@]1(C(=O)C(C)C)C(=O)C(CC=C(C)C)=C2O [Hyperforin, hyperforin]	–	–	–	–	–	–	induced sulfotransferase activity	0.411 and 0.360 and 0.298	0.356	0.475 and 0.402 and 0.369	0.415	0.523 and 0.506 and 0.489	0.506	–	–
CC(C)=CCC/C(C)=C/CC/C(C)=C/CC/C(C)=C/CC1=C(C)C(=O)c2ccccc2C1=O [Vitamin K2, vitamin K2]	0.339 and 0.138 and 0.180	0.219	–	–	–	–	induced sulfotransferase activity	–	–	–	–	0.176 and 0.211 and 0.173	0.187	0.145 and 0.208 and 0.144	0.166

Reference: patent US12533309B2, “Minoxidil adjuvant therapies” (JUPITER WELLNESS, INC., priority 2018, dated 2026)
